Legend:
[1] = tested on: persister cells of P. aeruginosa; assay: Persister eradication, P. aeruginosa; assay type: cell-based, Pseudomonas aeruginosa; conditions: 1×MIC, 405 nm
[2] = Photodegradation of MMs by 1H NMR; assay type: physicochemical; conditions: 5 min, 146 mW cm^−2 405 nm, DMSO-d6
Description: Aromatic region of ^1H NMR (600 MHz) spectra of MM 1 (300 mM in DMSO-d6) before and after irradiation for 5 min with 146 mW cm^−2 of 405 nm light.

superoxide dismutase = assay: Superoxide dismutase (SOD) activity; assay type: cell-based, Candida albicans; conditions: 0.5×MIC, p<0.05
Description: Superoxide dismutase (SOD) activity was determined using a Superoxide Dismutase Assay Kit (Caymanchem, MI, USA) per the distributor's instructions. Lipid peroxidation was determined using a TBARS assay kit (TCA method) (Caymanchem, MI, USA) per the distributor's instructions. SOD activity and MDA levels were normalized by protein content determined by the Pierce assay (Pierce™ BCA Protein Assay Kit, Thermo Fisher Scientific, MA, USA).

HEK293T cells = assay: Toxicity to HEK293T cells (CellTiter-Glo) and therapeutic index; assay type: cell-based, human; conditions: ratio between IC50 (HEK293T) and MIC
Description: The toxicity of visible-light-activated MMs to mammalian cells was investigated in human embryonic kidney cells (HEK293T) treated with increasing MM concentrations and 87.6 J cm^−2 of 405-nm light. […] The MM concentration that reduced viability by 50% (IC50), calculated from dose-response curves (FIG. 16C), ranged from 1.61-6.02 µM (FIG. 16D). The IC50 and MIC were used to calculate the therapeutic index. With a therapeutic index ≥1 (FIG. 16D), MM 1 was used for in vivo and ex vivo studies.
The biocompatibility of MMs with […] HEK293T cells was assessed using the CellTiter-Glo® Luminescent Cell Viability Assay (Promega, WI, USA) per the manufacturer's instructions by treating cells with increasing concentrations of different MMs plus 405-nm light (87.6 J cm^−2). Dose-response curves were used to determine the MM concentrations that reduced cell viability by 50% (IC50). The therapeutic index was calculated as the ratio between the IC50 and the MIC.

E. coli = assay: Antibacterial activity of pre-irradiated MM 1; assay type: cell-based, Escherichia coli; conditions: pre-irradiation 25 min
Description: Influence of MM pre-irradiation on the inactivation of E. coli. Top: (1) To test the influence of pre-irradiating MMs on their antibacterial effects, MM 1 was added to a Petri dish containing PBS (final concentration of 8 μM) and irradiated for 25 min at 146 mW cm^−2 with 405 nm light. Cells were then added to an OD of ≈0.02, incubated in the dark for 30 min and then irradiated for up to 10 min at 146 mW cm^−2 with 405 nm light; (2) Independently, MM 1 was added to a Petri dish containing PBS (final concentration of […]), cells were then added to an OD600 of ≈0.02, incubated in the dark for 30 min and then irradiated for up to 10 min at 146 mW cm^−2 with 405 nm light. Bottom: Time-dependent reduction in colony-forming units (expressed as the logarithm of the ratio between the cell number at every time point and the cell number at time zero) of cells treated with pre-irradiated MM 1 or non-irradiated MM 1.

[3] = tested on: mature C. albicans biofilms; assay: Biofilm viability (XTT assay); assay type: cell-based, Candida albicans; conditions: 2×, 4×MIC, vs DMSO, MMs with 87.6 J cm^−2 405-nm light
Description: The antibiofilm activity of MMs was investigated using 96-well microtiter plates with flat-bottom wells as a closed static biofilm reactor. This setup is reliable, inexpensive, easy to use and obtain, and requires no additional equipment (Pierce et al., 2010). Two parameters were used to evaluate antibiofilm activity: biofilm biomass and biofilm viability. Biofilm biomass was determined using the crystal violet method (Martins et al, 2010), a simple, inexpensive, and readily accessible method for determining biofilm biomass. However, because crystal violet binds both live and dead cells as well as extracellular polymeric substances, it cannot be used alone to reliably assess antibiofilm activity. To overcome this limitation, the XTT assay was used to evaluate biofilm viability (Nett et al., 2011). […] The resulting formazan can be easily detected by measuring the absorbance at 490 nm, which is proportional to the number of living cells, providing a reliable quantitative measurement of metabolically active cells in biofilms (Taff et al., 2012). […]
Biofilm viability was determined using an XTT cell viability assay kit (Biotium, Hayward, CA, USA) per the manufacturer's instructions. […] Normalized absorbance values were obtained by subtracting the background from the signal.

E. cloacae = assay: MIC, E. cloacae; assay type: cell-based; conditions: Enterobacter cloacae, read-out: MIC of MM
Description: The appropriate volume of an MM stock at 8 mM necessary to achieve a concentration ranging from 0.3125 to 40 μM was pipetted into a 2 mL microcentrifuge tube to which 1 mL of cell suspension prepared as previously described was added. Corresponding negative controls (DMSO only) were prepared in the same way. The mixture was gently mixed by pipetting and incubated in the dark at 30 or 37 ° C, depending on the strain, for 30 min with agitation (220 rpm). Afterward, MM- or DMSO-treated cells were dispensed in one well of a 24-well plate positioned in the center of the light beam (405 nm LED Light, Prizmatix, UHP—F-5-405) placed at the appropriate distance necessary to achieve the desired light intensity of 304 mW cm-2, 146 mW cm2 or 87 mW cm2, as measured with a handheld digital power meter console coupled to an S415C thermal power sensor head (Thorlabs, Newton, MA, USA). The temperature during irradiation was monitored using a thermocouple probe (Model SC-TT-K-30-36-PP; Omega Engineering, Inc., Stanford, CT, USA). Samples were agitated during irradiation. Dark controls were prepared as previously described except that no irradiation was provided. […]

Row | SMILES | time to reduce persister cells to limit of detection [1] [min] | photodegradation [2] | superoxide dismutase activity (superoxide dismutase) | therapeutic index (HEK293T cells) | antibacterial activity after pre-irradiation (E. coli) | reduction of biofilm viability [3] | MIC (E. cloacae) [µM]
1 | C[C@@H]1Cc2ccc3ccccc3c2/C1=C1\c2ccccc2Sc2cc(NCCN(C)C)ccc21 [MM 1, N^1N^1-dimethyl-N^2-(9-(2-methyl-2,3-dihydro-1H-cyclopenta[a]naphthalen-1-ylidene)-9H-thioxanthen-3-yl) ethane-1,2-diamine] | 2 | does not cause detectable photodegradation of MMs | increased superoxide dismutase activity | ≥ 1 | does not lead to loss of MM antibacterial activity | up to 96% | 
2 | C[C@@H]1Cc2ccc3ccccc3c2/C1=C1\c2ccccc2Sc2cc(NCCN)ccc21 (racemic) [MM 6, N^1-(9-(2-methyl-2,3-dihydro-1H-cyclopenta[a]naphthalen-1-ylidene)-9H-thioxanthen-3-yl)ethane-1,2-diamine] |  |  |  |  |  |  | 10
